In data set [1] the test system is Staphylococcus epidermidis clinical strain no. 23. Description: Cell membrane potential, DiOC2 flow cytometry. As to conditions: 4 × MIC, within 15 min; MSSE, S. epidermidis clinical strain no. 23, S. aureus Newman. The class given is cell-based. An excerpt: 23, and S. aureus Newman (reference strain without known antibiotic resistance determinants). Bacterial strains were stained with 3,3′-diethyloxacarbocyanine iodide (DiOC2) and then treated with the tested compound 25, with carbonyl cyanide 3-chlorophenylhydrazone (CCCP) used as a positive control. Daptomycin was used as a reference compound that causes depolarization of bacterial cell membranes.[22]
(reduction of navy blue resazurin to pink resorufin in the presence of metabolically active cells) compared to the negative (sterile medium without bacteria and compounds) and positive control (medium with bacteria).9 The minimal biofilm eradication concentration value was analyzed using a high throughput screening the MBEC Assay® Kit (Innovotech, Canada), formerly the Calgary Biofilm Device, according to the manufacturer's insert.10 […]
determining MBC (Minimal Bactericidal Concentration) values. […] Then, the value of the MBC/MIC ratio was calculated to assess its bactericidal or bacteriostatic activity. […]
using the BacLight™ Bacterial Membrane Potential Kit (Molecular Probes, Invitrogen, Carlsbad, CA, USA).15 Analysis of the cells was tested in an LSR II flow cytometer (BD Biosciences Immunocytometry Systems, San Jose, CA, USA) equipped with blue, red and violet lasers, using 488 nm excitation for green (530/30 BP filter, 505 LP) and red (610/20 BP, 600 LP) fluorescence. […]

The nature of data set [2]: Microsomal stability assay. The following applies: RLM, 60 min of incubation. As for the experimental part: were treated with 100 μL of tested compound at the final concentration of 200 μM, and incubated at 37 °C for 1 h. Triton X-100 (2%) and PBS were used as positive and negative controls, respectively. After centrifugation at 3000 rpm for 3 min, 100 μL of the supernatants were transferred to a 96 well microtiter plate and the hemoglobin release was determined in a SpectraMax iD3 reader (Molecular Devices) by absorption at 540 nm.
2.3.4 Microsomal stability assay […]
following previously reported procedures.7 Tested compound was preincubated at 37 °C in a phosphate buffer (pH 7.4), containing rat liver microsomes (Sigma-Aldrich, Germany), at the concentration of 0.4 mg/mL. After 10 min, NADPH-regenerating system was added to initiate the reaction. At appropriate time points (0, 30 and 60 min), reaction was quenched with ice-cold methanol, containing the internal standard pentoxiphylline. Next samples were centrifuged and the supernatant was subjected to UPLC-MS analysis. From slope of the line on plot Ln (%remaining of parent compounds) vs time, t1/2 was determined. Clint was calculated from […]
experiment was run in duplicate. The metabolized drug verapamil was used as positive control […]
provided by Molecular Discovery Ltd. (Hertfordshire, UK). A highest probability of metabolic sites and metabolite structures were analysed by liver computational model. 8 […]

For `O=C(Nc1cccc(Cl)c1)NC1CCN(CCC(Oc2ccc(C(F)(F)F)cc2)c2cccs2)CC1` (centres unmarked) [Compound 25], the membrane depolarization entry in data set [1] was “depolarization in nearly all bacterial cells”. This compound also yielded a Clin in data set [2] of 26.7.

The values above are taken from PMC10945555, “Improving Activity of New Arylurea Agents against Multidrug-Resistant and Biofilm-Producing Staphylococcus epidermidis” (ACS Medicinal Chemistry Letters, 2024).
